Like-named read-outs stand apart in the source and are kept apart here. One block for each molecule: values may come before it.
Tests used:
[1] = biological target: T1, L-fucose dehydrogenase (L-FDH) (Pseudomonas sp, UniProt Q52472); assay: L-FDH substrate and coenzyme specificity (determination of activity, NADPH at 340 nm); format: biochemical, Pseudomonas sp. No. 1143; conditions: for coenzyme requirement (relative activity): NADP+ = 100%, L-fucose as substrate; for specificity of the enzyme to substrate sugar (relative activity): L-fucose = 100%, NADP+ as coenzyme
T1 construct: L-FDH was accumulated in the cell portion; made in house; host or cells: Pseudomonas sp; No. 1143 (FERM BP-2056), the natural producing strain isolated from soil; enzyme purified from its cells, not recombinant
T1 sequence (Q52472 1-329): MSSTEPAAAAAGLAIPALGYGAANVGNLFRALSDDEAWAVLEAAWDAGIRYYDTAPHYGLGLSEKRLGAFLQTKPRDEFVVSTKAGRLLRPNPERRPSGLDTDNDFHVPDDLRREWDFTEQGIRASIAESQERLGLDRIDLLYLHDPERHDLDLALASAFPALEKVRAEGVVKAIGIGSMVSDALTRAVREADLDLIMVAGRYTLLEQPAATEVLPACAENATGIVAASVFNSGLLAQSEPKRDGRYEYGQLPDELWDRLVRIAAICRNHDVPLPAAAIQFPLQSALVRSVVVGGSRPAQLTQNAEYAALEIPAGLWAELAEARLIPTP
Protocol: As shown in the following reaction equation, the enzyme oxidizes L-fucose to L-fuconolactone in the presence of L-fucose and NADP+ and at the same time reduces NADP^+ to NADPH.
Furthermore, the enzyme requires NADP^+ (100%) as coenzyme but reacts very little with NAD^+ (1%).
(§1) To 2.5 ml of Tris-imidazole-sodium acetate buffer solution (solution containing 0.12 M each is adjusted to pH of 9.5 with 4 N NaOH) is added 0.2 ml of 15 mM NADP^+ solution After keeping at 37° C. for 5 minutes, 0.1 ml of an enzyme solution is added and 0.2 ml of 150 mM L-fucose solution is further added to the system to initiate the reaction. Immediately thereafter, the reaction mixture is transferred to a cell for measurement of absorbance (1 cm light path) kept at 37° C. and absorbance is measured at the wavelength of 340 nm for 2 minutes or, if necessary, over a longer time period. One unit is an amount of enzyme that produces 1 μmole of NADPH for one minute.

[2] = biological target: T1, L-fucose dehydrogenase (L-FDH); format: biochemical; conditions: for Residual Activity (%): inhibitor or metal salt 2 mM in reaction solution, None = 100
Protocol: as §1

[3] = Polyacrylamide gel isoelectrofocusing of L-FDH; format: physicochemical, Pseudomonas sp. No. 1143
[4] = biological target: T1, L-fucose dehydrogenase (L-FDH); assay: Optimum pH and temperature, pH stability and thermal stability of L-FDH; format: biochemical, Pseudomonas sp. No. 1143
Protocol: By heat treatment at 30° C. for 60 minutes, the enzyme is stable at a pH value of 8.0 to 10.5 but is unstable at a pH value below 6.0.
as §1

[5] = metal salts and inhibitors, 2 mM

Molecule: NC(=O)c1ccc[n+]([C@@H]2O[C@H](COP(=O)([O-])OP(=O)(O)OC[C@H]3O[C@@H](n4cnc5c(N)ncnc54)[C@H](OP(=O)(O)O)[C@@H]3O)[C@@H](O)[C@H]2O)c1 [NADP^+, oxidized nicotinamide adenine dinucleotide phosphate]
coenzyme requirement (relative activity) [1]: 100%

Molecule: [N-]=[N+]=[N-].[Na+] [NaN3]
inhibition and activation of enzyme activity [2, 5]: not observed

Molecule: c1ccc(-c2ccccn2)nc1 [α,α'-dipyridyl]
inhibition and activation of enzyme activity [2, 5]: not observed

Molecule: L-fucose dehydrogenase [L-FDH]
isoelectric point [3]: 5.2
pH at which the enzyme is unstable ([4]; heat treatment at 30° C. for 60 minutes): below 6.0
temperature up to which the enzyme is stable ([4]; heat treatment for 10 minutes, FIG. 4): up to 40 °C

Molecule: O=S(=O)([O-])[O-].[Zn+2] [ZnSO4]
Residual Activity (%) [2]: 81%

inhibition and activation of enzyme activity [2, 5]: not observed
Molecule: c1cnc2c(c1)ccc1cccnc12 [o-phenanthroline]

Molecule: C[C@H](O)[C@@H](O)[C@@H](O)[C@H](O)C=O [L-fucose]
specificity of the enzyme to substrate sugar (relative activity) [1]: 100%

Molecule: O=S(=O)([O-])[O-].[Cd+2] [CdSO4]
Residual Activity (%) [2]: 2%

Molecule: [Ca+2].[Cl-].[Cl-] [CaCl2]
inhibition and activation of enzyme activity [2, 5]: not observed

Molecule: NC(=O)CI [Iodoacetamide]
Residual Activity (%) [2]: 91%

Molecule: [Cl][Hg][Cl] [HgCl2]
Residual Activity (%) [2]: 2%

Molecule: O=C[C@@H](O)[C@H](O)[C@H](O)[C@@H](O)CO [L-galactose]
specificity of the enzyme to substrate sugar (relative activity) [1]: 96%

Molecule: O=C[C@@H](O)[C@H](O)[C@H](O)CO [D-arabinose]
specificity of the enzyme to substrate sugar (relative activity) [1]: 1%

Molecule: O=S(=O)([O-])[O-].[Mg+2] [MgSO4]
inhibition and activation of enzyme activity [2, 5]: not observed

Molecule: O=S(=O)([O-])[O-].[Ni+2] [NiSO4]
inhibition and activation of enzyme activity [2, 5]: not observed

Molecule: O=S(=O)([O-])[O-].[Cu+2] [CuSO4]
inhibition and activation of enzyme activity [2, 5]: not observed

Molecule: NC(=O)c1ccc[n+]([C@@H]2O[C@H](COP(=O)([O-])OP(=O)(O)OC[C@H]3O[C@@H](n4cnc5c(N)ncnc54)[C@H](O)[C@@H]3O)[C@@H](O)[C@H]2O)c1 [NAD^+, nicotinamide adenine dinucleotide]
coenzyme requirement (relative activity) [1]: 1%

Molecule: O=C(O)CN(CCN(CC(=O)O)CC(=O)O)CC(=O)O [EDTA]
inhibition and activation of enzyme activity [2]: not observed

Molecule: O=C(O)c1cc[c]([Hg][Cl])cc1 [PCMB]
Residual Activity (%) [2]: 18%

— patent US5260197A, “L-fucose dehydrogenase, a process for production thereof, quantitative assay for L-fucose using said enzyme and a kit for quantitative assay” (Noda Institute for Scientific Research, priority 1988, dated 1993)
